The values that follow come from patent US6514509B2, “Method for production on the spot of a disinfectant peracetic acid system” (Farmec S.n.c. di Tabasso Renato & C., priority 1998, dated 2003).

Series [1] concerns spores of bacillus subtilis. As to conditions: alcohol at concentrations of about 20% (or higher); cited from earlier work.
A short description of series [2]: Specific gravity of the solutions at 20° C. The series is classed as physicochemical. As for the experimental part: (§1) The above listed components were weighed separately, taking particular care with the concentrated sulfuric acid, which must be handled under a hood and with protection gloves. The components were mixed in the above listed sequence, making sure that the component being dealt with was perfectly mixed before adding the next one. After addition of the components, the mixture was stirred for 15 minutes, left to rest for 10 minutes and a sample was retrieved for checking its chemical and physical properties.
(§2) The following chemical-physical properties were measured: […]

The nature of a further series: Miscibility in water. It is filed as physicochemical. As for the experimental part:
as §1, §2

The nature of series [3]: pH (10% w/w in deionized water) at 20° C. The series is classed as physicochemical. As for the experimental part: as §1, §2
For series [4] the following is noted: cited from earlier work.
For series [5] the following is noted: properties of commercial hydrogen peroxide; cited from earlier work.
The conditions of series [6]: properties of commercial hydrogen peroxide; cited from earlier work. The source holds these as a separate data set.
The conditions of series [7]: properties of commercial hydrogen peroxide; cited from earlier work. The source holds these as a separate data set.
The conditions of series [8]: properties of commercial hydrogen peroxide; cited from earlier work. This is another data set of the same source.
Series [9] relates to Gram + and Gram − bacteria, fungi and yeasts. As to conditions: cited from earlier work.
The subject of a further series is Bacterial spores. The following applies: cited from earlier work.
For series [10] the following is noted: cited from earlier work. The source holds these as a separate data set.
A further series deals with Enterovirus. As to conditions: cited from earlier work.
For a further series, the system named is Poliovirus. As to conditions: cited from earlier work.

Like-named read-outs stand apart in the source and are kept apart here.

`CC(C)O` [Isopropyl alcohol]: in [1], the “effect with PAA as regards its germicidal activity” value is on record as “synergistic effect”.
For the compound `CCO` [Ethyl alcohol], in series [1], the “effect with PAA as regards its germicidal activity” value is reported as “synergistic effect”.
Turning to `OO` [Hydrogen peroxide, 50% w/w, Hydrogen peroxide], in series [2], the “Specific gravity at 20° C.” value was 1.280 g/mL. The Miscibility in water result in the series “Miscibility in water” is on record as “full”. Moreover, the “pH (10% w/w in deionized water) at 20° C.” value in series [3] is on record as 2.00-3.00 U of pH.
Regarding `OO` [hydrogen peroxide], the “loss of active ingredient per year” value in [4] (hydrogen peroxide (30 to 90%), per year) was “less than 1%”.
As to `OO` [Hydrogen peroxide, 35% w/w, Hydrogen peroxide], the “Vapor pressure at 20° C.” value in series [5] is recorded as 17-20 mbar. For the same compound, the “pH (10% w/w in deionized water) at 20° C.” value in series [6] is given as 2.00-3.00 U of pH. The “Specific gravity at 20° C.” value in series [7] is 1.132 g/mL. Also, in [8], the Miscibility in water entry was “full”.
Regarding `CC(=O)OO` [PAA, peracetic acid], the Contact times in series [9] (100 ppm PAA) is at most 5 min; in series [9] (in the presence of organic material, 200-500 ppm PAA) it was at most 5 min; in the series with Bacterial spores (lower end of the 500-30,000 ppm range) it was 15 min; in the series with Bacterial spores (upper end of the 500-30,000 ppm range), 0.25 min; with Enterovirus (2000 ppm PAA), 10 to 30 min; in the series with Poliovirus it was 15 min. The entries for the “Effect on medical and surgical instruments” value (in [9] (100 ppm PAA); in series [9] (in the presence of organic material); in the series on Bacterial spores) were “Low-level disinfection”, “Low-level disinfection” and “Sterilization”, respectively. Further, the “Ppm (%) of PAA” value in series [9] (inactivated and killed in the presence of organic material) is listed as 200-500 Ppm; in [9] (microorganisms are inactivated and killed), 100 (0.01%) Ppm; with Bacterial spores, 500-30,000 Ppm; in the series on Enterovirus, 2000 (0.2%) Ppm; in the series on Poliovirus, 1500-2250 Ppm. The solubility in water result in series [10] is reported as “infinite”. In addition, the “loss of active ingredient per month” value in series [4] (40% w/w solution, per month) is recorded as 1 to 2%.
